Measured values reported in ChEMBL document CHEMBL3734705, “Synthesis and in vitro cytotoxicity of novel C-12 substituted-14-deoxy-andrographolide derivatives as potent anti-cancer agents” (2015).

Legend:
[1] = Cytotoxicity against human IGROV1 cells assessed as growth level at 10 uM after 48 hrs by SRB assay; type: functional, IGROV-1
HT-29 = assay: Cytotoxicity against human HT-29 cells assessed as growth level at 10 uM after 48 hrs by SRB assay; type: functional
[2] = Cytotoxicity against human RXF393 cells assessed as growth level at 10 uM after 48 hrs by SRB assay; type: functional, RXF 393
[3] = Cytotoxicity against human SNB75 cells assessed as growth level at 10 uM after 48 hrs by SRB assay; type: functional, SNB-75
[4] = Cytotoxicity against human RPMI8226 cells assessed as growth level at 10 uM after 48 hrs by SRB assay; type: functional, RPMI-8226
[5] = Cytotoxicity against human LOXIMVI cells assessed as growth level at 10 uM after 48 hrs by SRB assay; type: functional, LOX IMVI
NCI-H23 [6] = assay: Cytotoxicity against human NCI-H23 cells assessed as growth level at 10 uM after 48 hrs by SRB assay; type: functional
T47D [7] = assay: Cytotoxicity against human T47D cells assessed as growth level at 10 uM after 48 hrs by SRB assay; type: functional
[8] = Cytotoxicity against human HCC2998 cells assessed as growth level at 10 uM after 48 hrs by SRB assay; type: functional, HCC 2998
SK-MEL-5 [9] = assay: Cytotoxicity against human SK-MEL-5 cells assessed as growth level at 10 uM after 48 hrs by SRB assay; type: functional
NCI-H460 = assay: Cytotoxicity against human NCI-H460 cells assessed as growth level at 10 uM after 48 hrs by SRB assay; type: functional
[10] = Cytotoxicity against human HOP62 cells assessed as growth level at 10 uM after 48 hrs by SRB assay; type: functional, HOP-62
[11] = Cytotoxicity against human DU145 cells assessed as growth level at 10 uM after 48 hrs by SRB assay; type: functional, DU-145
[12] = Cytotoxicity against human HCT15 cells assessed as growth level at 10 uM after 48 hrs by SRB assay; type: functional, HCT-15
[13] = Cytotoxicity against human SF539 cells assessed as growth level at 10 uM after 48 hrs by SRB assay; type: functional, SF-539
SN12C = assay: Cytotoxicity against human SN12C cells assessed as growth level at 10 uM after 48 hrs by SRB assay; type: functional
SR = assay: Cytotoxicity against human SR cells assessed as growth level at 10 uM after 48 hrs by SRB assay; type: functional
[14] = Cytotoxicity against human OVCAR5 cells assessed as growth level at 10 uM after 48 hrs by SRB assay; type: functional, OVCAR-5
NCI-H522 [15] = assay: Cytotoxicity against human NCI-H522 cells assessed as growth level at 10 uM after 48 hrs by SRB assay; type: functional
CCRF-CEM = assay: Cytotoxicity against human CCRF-CEM cells assessed as growth level at 10 uM after 48 hrs by SRB assay; type: functional
[16] = Cytotoxicity against human PC3 cells assessed as growth level at 10 uM after 48 hrs by SRB assay; type: functional, PC-3
[17] = Cytotoxicity against human Hs578T cells assessed as growth level at 10 uM after 48 hrs by SRB assay; type: functional, Hs-578T
[18] = Cytotoxicity against human HL-60(TB) cells assessed as growth level at 10 uM after 48 hrs by SRB assay; type: functional
[19] = Cytotoxicity against human MOLT4 cells assessed as growth level at 10 uM after 48 hrs by SRB assay; type: functional, MOLT-4
[20] = Cytotoxicity against human SKOV3 cells assessed as growth level at 10 uM after 48 hrs by SRB assay; type: functional, SK-OV-3
[21] = Cytotoxicity against human SW620 cells assessed as growth level at 10 uM after 48 hrs by SRB assay; type: functional, SW-620
NCI-H23 [22] = assay: Cytotoxicity against human NCI-H23 cells assessed as growth inhibition at 10 uM after 48 hrs by SRB assay; type: functional; settings: NCI-H23, 48 h, read-out: GI
SK-MEL-5 [23] = assay: Cytotoxicity against human SK-MEL-5 cells assessed as growth inhibition at 10 uM after 48 hrs by SRB assay; type: functional; settings: SK-MEL-5, 48 h, read-out: GI
[24] = Cytotoxicity against human HOP62 cells assessed as growth inhibition at 10 uM after 48 hrs by SRB assay; type: functional; settings: HOP-62, 48 h, read-out: GI
NCI-H522 [25] = assay: Cytotoxicity against human NCI-H522 cells assessed as growth inhibition at 10 uM after 48 hrs by SRB assay; type: functional; settings: NCI-H522, 48 h, read-out: GI
U-251 = assay: Cytotoxicity against human U251 cells assessed as growth inhibition at 10 uM after 48 hrs by SRB assay; type: functional; settings: U-251, 48 h, read-out: GI
MCF7 = assay: Cytotoxicity against human MCF7 cells assessed as growth inhibition at 10 uM after 48 hrs by SRB assay; type: functional; settings: MCF7, 48 h, read-out: GI
[26] = Cytotoxicity against human UACC257 cells assessed as growth inhibition at 10 uM after 48 hrs by SRB assay; type: functional; settings: UACC-257, 48 h, read-out: GI
[27] = Cytotoxicity against human SNB75 cells assessed as growth inhibition at 10 uM after 48 hrs by SRB assay; type: functional; settings: SNB-75, 48 h, read-out: GI
KM12 = assay: Cytotoxicity against human KM12 cells assessed as growth inhibition at 10 uM after 48 hrs by SRB assay; type: functional; settings: KM12, 48 h, read-out: GI
T47D [28] = assay: Cytotoxicity against human T47D cells assessed as growth inhibition at 10 uM after 48 hrs by SRB assay; type: functional; settings: read-out: GI
[29] = Cytotoxicity against human DU145 cells assessed as growth inhibition at 10 uM after 48 hrs by SRB assay; type: functional; settings: DU-145, 48 h, read-out: GI
[30] = Cytotoxicity against human Caki1 cells assessed as growth inhibition at 10 uM after 48 hrs by SRB assay; type: functional; settings: CAKI-1, 48 h, read-out: GI
Malme-3M = assay: Cytotoxicity against human MALME-3M cells assessed as growth inhibition at 10 uM after 48 hrs by SRB assay; type: functional; settings: read-out: GI
[31] = Cytotoxicity against human COLO205 cells assessed as growth inhibition at 10 uM after 48 hrs by SRB assay; type: functional; settings: COLO 205, 48 h, read-out: GI
[32] = Cytotoxicity against human BT549 cells assessed as growth inhibition at 10 uM after 48 hrs by SRB assay; type: functional; settings: BT-549, 48 h, read-out: GI

C=C1CC[C@@H]2[C@](C)(COC(C)=O)[C@H](OC(C)=O)CC[C@@]2(C)[C@@H]1CC(Nc1ccc(S(=O)(=O)NC(C)=O)cc1)C1=CCOC1=O (mixture of isomers)
Activity [1]: -10.04% | Activity (HT-29): -69.92% | Activity [2]: -75.81% | Activity [3]: 26.28% | Activity [4]: -16.18% | Activity [5]: -85.84% | Activity (NCI-H23 [6]): 7.36% | Activity (T47D [7]): -3.67% | Activity [8]: -12.74% | Activity (SK-MEL-5 [9]): 7.36% | Activity (NCI-H460): 5.29% | Activity [10]: 81.97% | Activity [11]: 0.37% | Activity [12]: -49.53% | Activity [13]: -76.71% | Activity (SN12C): 1.94% | Activity (SR): 2.08% | Activity [14]: -40.14% | Activity (NCI-H522 [15]): -63.21% | Activity (CCRF-CEM): -27.89% | Activity [16]: 0.69% | Activity [17]: 32.45% | Activity [18]: -31.09% | Activity [19]: 0.12% | Activity [20]: 67.34% | Activity [21]: -65.65%

C=C1CC[C@@H]2[C@](C)(COC(C)=O)[C@H](OC(C)=O)CC[C@@]2(C)[C@@H]1CC(Sc1ccccc1)C1=CCOC1=O (mixture of isomers)
Activity [1]: 25.2% | Activity (HT-29): -39.29% | Activity [2]: 5.01% | Activity [3]: 86.98% | Activity [4]: -4.72% | Activity [5]: -83.89% | Activity (NCI-H23 [6]): 24.46% | Activity (T47D [7]): 7.94% | Activity [8]: 44.69% | Activity (SK-MEL-5 [9]): 13.51% | Activity (NCI-H460): 21.71% | Activity [10]: -18.21% | Activity [11]: 16.39% | Activity [12]: -38.36% | Activity [13]: -43.56% | Activity (SN12C): 1.3% | Activity (SR): 2.9% | Activity [14]: 39.82% | Activity (NCI-H522 [15]): -80.61% | Activity (CCRF-CEM): -5.24% | Activity [16]: 36.43% | Activity [17]: 54.23% | Activity [18]: -46.54% | Activity [19]: -3.93% | Activity [20]: 57.71% | Activity [21]: 0.83%

C=C1CC[C@@H]2[C@](C)(CO)[C@H](O)CC[C@@]2(C)[C@@H]1C/C=C1/C(=O)OC[C@H]1O [ANDROGRAPHOLIDE]
inhibition of growth at 10 µM (NCI-H23 [22]): 2.11% | Activity [1]: 103.71% | Activity (HT-29): 27% | Activity [2]: 125.24% | Activity [3]: 61.95% | Activity [4]: 83.28% | Activity [5]: 21.84% | inhibition of growth at 10 µM (SK-MEL-5 [23]): 22.7% | inhibition of growth at 10 µM [24]: 3.73% | Activity (NCI-H23 [6]): 97.89% | Activity (T47D [7]): 87.76% | inhibition of growth at 10 µM (NCI-H522 [25]): 82.9% | inhibition of growth at 10 µM (U-251): 24.2% | Activity [8]: 114.39% | inhibition of growth at 10 µM (MCF7): 42.2% | Activity (SK-MEL-5 [9]): 77.27% | inhibition of growth at 10 µM [26]: 23.5% | Activity (NCI-H460): 97.98% | inhibition of growth at 10 µM [27]: 38% | Activity [10]: 96.27% | Activity [11]: 80.06% | Activity [12]: 61.89% | Activity [13]: 83.41% | Activity (SN12C): 81.73% | Activity (SR): 79.53% | inhibition of growth at 10 µM (KM12): 19.8% | inhibition of growth at 10 µM (T47D [28]): 12.2% | Activity [14]: 104.24% | Activity (NCI-H522 [15]): 17.13% | Activity (CCRF-CEM): 23.48% | inhibition of growth at 10 µM [29]: 19.9% | inhibition of growth at 10 µM [30]: 3.3% | inhibition of growth at 10 µM (Malme-3M): 0.22% | Activity [16]: 93.4% | Activity [17]: 110.33% | Activity [18]: 100.04% | Activity [19]: 98.11% | inhibition of growth at 10 µM [31]: 5.1% | Activity [20]: 103.76% | Activity [21]: 44.29% | inhibition of growth at 10 µM [32]: 12.9%
